Results on 57 compounds are retold here after patent US20230278998A1, “Compound containing structure of a five-membered heteroaromatic ring, pharmaceutical compositions thereof and applications thereof” (280 Bio, Inc., priority 2022, published 2023).

By IC50 is commonly meant the concentration that inhibits the measured activity by half. A low value points to greater potency in that assay.

PARG (389-976), sequence (Q86W56 389-976): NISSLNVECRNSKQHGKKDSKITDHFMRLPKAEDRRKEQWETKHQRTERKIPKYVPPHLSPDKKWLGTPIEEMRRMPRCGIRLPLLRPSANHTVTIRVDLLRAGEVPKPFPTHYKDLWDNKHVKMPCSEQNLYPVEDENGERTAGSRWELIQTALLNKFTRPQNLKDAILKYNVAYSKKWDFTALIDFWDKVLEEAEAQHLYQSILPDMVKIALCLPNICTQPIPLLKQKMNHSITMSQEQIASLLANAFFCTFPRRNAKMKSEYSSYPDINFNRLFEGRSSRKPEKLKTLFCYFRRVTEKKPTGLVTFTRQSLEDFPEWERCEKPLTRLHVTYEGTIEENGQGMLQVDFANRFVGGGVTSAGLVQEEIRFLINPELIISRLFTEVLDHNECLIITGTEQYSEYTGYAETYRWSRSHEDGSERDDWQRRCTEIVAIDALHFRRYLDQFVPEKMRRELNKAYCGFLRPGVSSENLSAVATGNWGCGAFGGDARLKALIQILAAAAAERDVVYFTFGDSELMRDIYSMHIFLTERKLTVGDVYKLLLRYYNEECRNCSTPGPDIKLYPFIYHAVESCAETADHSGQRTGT

The first experiment has as its target PARG (389-976) (Homo sapiens (Human), UniProt Q86W56). In words: PARG enzyme inhibition assay (TR-FRET). In kind it is biochemical. Particulars: Table 1, class symbol. Here is the method:
PARG Enzyme Inhibition Assay
PARG in vitro assays were conducted in standard 384-well plates in a total volume of 15 μL.
For orientation: TR-FRET usually uses a lanthanide donor and a delayed reading to cut background.
Consider `Cc1nc(C)c(Cn2nc(-c3nnc(C(F)F)s3)c3cc(S(=O)(=O)NC4(C)CC4)cnc32)s1` [Compound 9], for which the IC50 was below 100 nM. Take `Cc1nc(C)c(Cn2nc(-c3nnc(C(F)F)s3)c3cc(S(=O)(=O)NC4(C)CC4)cc(C(F)(F)F)c32)s1` [Compound 10]: the half-maximal inhibitory concentration (IC50) lay within 100 to 1000 nM. In turn, `Cc1nc(C)c(Cn2nc(-c3nnc(C(F)F)s3)c3cc(S(=O)(=O)NC4(C)CC4)ccc32)s1` [Compound 1] registered a concentration for half-maximal inhibition (IC50) below 100 nM.

The compound `Cc1nc(C)c(Cn2c(Cl)c(-c3nnc(C(F)F)s3)c3cc(S(=O)(=O)NC4(C)CC4)ccc32)s1` [Compound 7] displayed an IC50 below 100 nM.

The same experiment, now with this note: Table 2, class symbol.
For the compound `Cn1nc(-c2nnc(C(F)F)s2)c2cc(S(=O)(=O)NC3(C#N)CC3)cc(-c3ccncn3)c21` [Compound 31], the IC50 was below 100 nM. On the same count and under the same terms, the value for `CC(C)C(=O)N1CCN(c2cc(S(=O)(=O)NC3(C#N)CC3)cc3c(-c4nnc(C(F)F)s4)n[nH]c23)CC1` [Compound 18] was below 100 nM; that for `Cc1nc(C)c(Cn2nc(-c3nnc(C(F)F)s3)c3cc(S(=O)(=O)NC4(C)CC4)cc(N4CCN(C(=O)C(C)C)CC4)c32)s1` [Compound 19] was below 100 nM. The compound `Cn1nc(-c2nnc(C(F)F)s2)c2cc(S(=O)(=O)NC3(C#N)CC3)cc(N3CCN(c4ccccc4)CC3)c21` [Compound 53] returned an IC50 below 100 nM. Same read-out and setting: the value for `CC(C)C(=O)N1CCN(c2cc(S(=O)(=O)NC3(C#N)CC3)cc3c(-c4nnc(C(F)F)s4)nn(CC(F)(F)F)c23)CC1` [Compound 30] was below 100 nM; that for `Cc1nnc(-c2nn(C)c3c(N4CCN(C(=O)C(C)C)CC4)cc(S(=O)(=O)NC4(C#N)CC4)cc23)s1` [Compound 56] was below 100 nM; that for `CC(C)C(=O)N1CC=C(c2cc(S(=O)(=O)NC3(C#N)CC3)cc3c(-c4nnc(C(F)F)s4)nn(C)c23)CC1` [Compound 40] was below 100 nM. In the case of `Cn1nc(-c2nnc(C(F)F)s2)c2cc(S(=O)(=O)NC3(C#N)CC3)cc(N3CCN(C(=O)c4ccccc4)CC3)c21` [Compound 36], the half-inhibitory concentration (IC50) was below 100 nM. `Cn1nc(-c2nnc(C(F)F)s2)c2cc(S(=O)(=O)NC3(C#N)CC3)cc(N3CCC4(CC3)COC4)c21` [Compound 46] yielded a 50% inhibitory concentration (IC50) below 100 nM. Still for that read-out and setting: the value for `Cn1nc(-c2nnc(C(F)F)s2)c2cc(S(=O)(=O)NC3(C)CC3)cc(N3CCOCC3)c21` [Compound 25] was below 100 nM; that for `CCn1nc(-c2nnc(C(F)F)s2)c2cc(S(=O)(=O)NC3(C#N)CC3)cc(N3CCN(C(=O)C(C)C)CC3)c21` [Compound 26] was below 100 nM; that for `CC(=O)N1CCN(c2cc(S(=O)(=O)NC3(C#N)CC3)cc3c(-c4nnc(C(F)F)s4)nn(C)c23)CC1` [Compound 32] was below 100 nM. In turn, `CC(C)C(=O)N1CCN(c2cc(S(=O)(=O)NC3(C)CC3)cc3c(-c4nnc(C(F)F)s4)nn(CC4CC4)c23)CC1` [Compound 15] yielded an IC50 below 100 nM. The compound `CC(C)C(=O)N1CCN(c2cc(S(=O)(=O)NC3(C#N)CC3)cc3c(-c4cnn(C)c4)nn(C)c23)CC1` [Compound 61] yielded a half-inhibitory concentration (IC50) below 100 nM. `CC(C)C(=O)N1C2CCC1CN(c1cc(S(=O)(=O)NC3(C)CC3)cc3c(-c4nnc(C(F)F)s4)nn(C)c13)C2` [Compound 65]: the IC50 is below 100 nM. For the compound `Cn1nc(-c2nnc(C(F)F)s2)c2cc(S(=O)(=O)NC3(C#N)CC3)cc(N3CCN(C(=O)C4(C)CC4)CC3)c21` [Compound 38], the IC50 is below 100 nM. Turning to `C[C@H]1CN(c2cc(S(=O)(=O)NC3(C#N)CC3)cc3c(-c4nnc(C(F)F)s4)nn(C)c23)CCO1` [Compound 35], the concentration for half-maximal inhibition (IC50) was below 100 nM. Still for that read-out and setting: then `CC(C)N1CCN(c2cc(S(=O)(=O)NC3(C#N)CC3)cc3c(-c4nnc(C(F)F)s4)nn(C)c23)CC1` [Compound 54], with below 100 nM; and `Cn1nc(-c2nnc(C(F)F)s2)c2cc(S(=O)(=O)NC3(C#N)CC3)cc(N3CCC(CO)CC3)c21` [Compound 44], with below 100 nM. Compound `CC(C)C(=O)N1CCN(c2cc(S(=O)(=O)NC3(C)CC3)cc3c(-c4nnc(C(F)F)s4)nn(C(C)C)c23)CC1` [Compound 16] gave a 50% inhibitory concentration (IC50) below 100 nM.

In turn, `CC(C)C(=O)N1CCN(c2cc(S(=O)(=O)NC3(C)CC3)cc3c(-c4nnc(C(F)F)s4)nn(CC(F)(F)F)c23)CC1` [Compound 23] displayed an IC50 below 100 nM. Consider `CN(C)C(=O)N1CCN(c2cc(S(=O)(=O)NC3(C#N)CC3)cc3c(-c4nnc(C(F)F)s4)nn(C)c23)CC1` [Compound 33], for which the concentration for half-maximal inhibition (IC50) was below 100 nM.

The experiment is the same for the next values; noted with them: Table 2, value in brackets.
`CC(C)C(=O)N1CCN(c2cc(S(=O)(=O)NC3(C#N)CC3)cc3c(-c4nnc(C(F)F)s4)n[nH]c23)CC1` [Compound 18] displayed an IC50 of 0.9 nM. Compound `Cn1nc(-c2nnc(C(F)F)s2)c2cc(S(=O)(=O)NC3(C#N)CC3)cc(N3CCC4(CC3)COC4)c21` [Compound 46] came in with an IC50 of 0.9 nM.

The same experiment, now with this note: Table 3, class symbol.
Take `C[C@H](O)C(=O)N1CCC(c2cc(S(=O)(=O)NC3(C#N)CC3)cc3c(-c4nnc(C(F)F)s4)nn(C)c23)CC1` [Compound 114]: the half-inhibitory concentration (IC50) is below 100 nM. With `C[C@H]1CN(c2cc(S(=O)(=O)NC3(C#N)CC3)cc3c(-c4nnc(C(F)F)s4)nn(C)c23)CCN1C(=O)N(C)C` [Compound 71], the IC50 is below 100 nM. In the case of `CC(C)C(=O)N1CCN(c2cc(S(=O)(=O)NC(C)(C)C)cc3c(-c4nnc(C(F)F)s4)nn(C)c23)CC1` [Compound 131], the IC50 is below 100 nM. Same read-out and setting: the value for `CN(C)C(=O)c1ccc(-c2cc(S(=O)(=O)NC3(C#N)CC3)cc3c(-c4nnc(C(F)F)s4)nn(C)c23)cc1` [Compound 132] was below 100 nM; that for `Cn1nc(-c2nnc(C(F)F)s2)c2cc(S(=O)(=O)NC3(C#N)CC3)cc(C3CC4CCC(C3)N4)c21` (centres unmarked) [Compound 121] was below 100 nM. With `Cn1nc(-c2nnc(C(F)F)s2)c2cc(S(=O)(=O)NC3(C#N)CC3)cc(N3CCN(C(=O)C4CCC4)CC3)c21` [Compound 144], the IC50 was below 100 nM. Take `CCn1nc(-c2nnc(C(F)F)s2)c2cc(S(=O)(=O)NC3(C#N)CC3)cc(N3CC4CCC(C3)N4C(=O)C(C)C)c21` [Compound 93]: the concentration for half-maximal inhibition (IC50) is below 100 nM. Consider `Cn1nc(-c2nnc(C(F)F)s2)c2cc(S(=O)(=O)NC3(C#N)CC3)cc(N3CCN(C(=O)C4(C)CCC4)CC3)c21` [Compound 143], for which the IC50 was below 100 nM. In turn, `Cn1nc(-c2nnc(C(F)F)s2)c2cc(S(=O)(=O)NC3(C#N)CC3)cc(C3CCC(C(=O)N4CCCC4)CC3)c21` (centres unmarked) [Compound 140] displayed a 50% inhibitory concentration (IC50) below 100 nM. For the compound `CC(C)C(=O)N1CCN(c2cc(S(=O)(=O)NC3(C#N)CC3)cc3c(-c4nnc(C(F)F)s4)nn(CC(F)(F)F)c23)C[C@H]1C` [Compound 109], the half-maximal inhibitory concentration (IC50) is below 100 nM. The compound `CC(C)CC(=O)N1CCN(c2cc(S(=O)(=O)NC3(C#N)CC3)cc3c(-c4nnc(C(F)F)s4)nn(C)c23)CC1` [Compound 146] gave a half-maximal inhibitory concentration (IC50) below 100 nM. `CC(C)C(=O)N1CCN(c2cc(S(=O)(=O)NC3(C#N)CC3)cc3c(-c4nnc(C(F)F)s4)nn(CC#N)c23)C[C@H]1C` [Compound 115] gave an IC50 below 100 nM. Compound `CC(C)C(=O)N1C2CCC1CC(c1cc(S(=O)(=O)NC3(C#N)CC3)cc3c(-c4nnc(C(F)F)s4)nn(C)c13)C2` (centres unmarked) [Compound 127] showed an IC50 below 100 nM. In turn, `Cn1nc(-c2nnc(C(F)F)s2)c2cc(S(=O)(=O)NC3(C#N)CC3)cc(N3CC4CCC(C3)C4C(=O)N3CCCC3)c21` (centres unmarked) [Compound 113] yielded an IC50 below 100 nM. On the same count and under the same terms, the value for `CC(C)C(=O)N1CCC(c2cc(S(=O)(=O)NC3(C#N)CC3)cc3c(-c4nnc(C(F)F)s4)nn(C)c23)CC1` [Compound 116] was below 100 nM; that for `N#CC1(NS(=O)(=O)c2cc(N3CC4(CCOCC4)C3)c3c(c2)c(-c2nnc(C(F)F)s2)nn3CC(F)(F)F)CC1` [Compound 133] was below 100 nM; that for `C[C@H](O)C(=O)N1C2CCC1CN(c1cc(S(=O)(=O)NC3(C#N)CC3)cc3c(-c4nnc(C(F)F)s4)nn(C)c13)C2` [Compound 72] was below 100 nM. On the same count and under the same terms, then `CC(C)(O)C1CCN(c2cc(S(=O)(=O)NC3(C#N)CC3)cc3c(-c4nnc(C(F)F)s4)nn(CC(F)(F)F)c23)CC1` [Compound 105], with below 100 nM. `CCn1nc(-c2nnc(C(F)F)s2)c2cc(S(=O)(=O)NC3(C#N)CC3)cc(N3CCN(C(=O)C(C)C)[C@H](C)C3)c21` [Compound 103] gave a concentration for half-maximal inhibition (IC50) below 100 nM. `CC(C)C(=O)N1CC2CCC(C1)N2c1cc(S(=O)(=O)NC2(C#N)CC2)cc2c(-c3nnc(C(F)F)s3)nn(C)c12` [Compound 101]: the IC50 is below 100 nM. With `CC(C)C(=O)N1CC=C(c2cc(S(=O)(=O)NC3(C#N)CC3)cc3c(-c4nnc(C(F)F)s4)nn(C[C@@H](O)CO)c23)CC1` [Compound 136], the half-inhibitory concentration (IC50) was below 100 nM.

In the case of `CCn1nc(-c2nnc(C(F)F)s2)c2cc(S(=O)(=O)NC3(C)CC3)c(F)c(N3CCN(C(=O)C(C)C)CC3)c21` [Compound 67], the concentration for half-maximal inhibition (IC50) is below 100 nM.

`CN1CCC(C(=O)N2C3CCC2CN(c2cc(S(=O)(=O)NC4(C#N)CC4)cc4c(-c5nnc(C(F)F)s5)nn(C)c24)C3)C1` (centres unmarked) [Compound 74] displayed an IC50 below 100 nM.

Consider `Cn1nc(-c2nnc(C(F)F)s2)c2cc(S(=O)(=O)NC3(C#N)CC3)cc(N3CCC(C(C)(C)O)CC3)c21` [Compound 76], for which the IC50 was below 100 nM. In the case of `Cn1nc(-c2nnc(C(F)F)s2)c2cc(S(=O)(=O)NC3(C#N)CC3)cc(N3CCC(C(=O)N4CCCC4)CC3)c21` [Compound 89], the IC50 is below 100 nM.

The compound `CC(C)C(=O)N1C2CCC1CN(c1cc(S(=O)(=O)NC3(C#N)CC3)cc3c(-c4nnc(C(F)F)s4)cn(C)c13)C2` [Compound 123] returned a half-inhibitory concentration (IC50) below 100 nM. `CCN(C)C(=O)N1CCN(c2cc(S(=O)(=O)NC3(C#N)CC3)cc3c(-c4nnc(C(F)F)s4)nn(C)c23)CC1` [Compound 145] displayed an IC50 below 100 nM.

With `N#CC1(NS(=O)(=O)c2cc(C3=CC4CCC(C3)N4C(=O)C3CCCC3)c3c(c2)c(-c2nnc(C(F)F)s2)nn3CC(F)(F)F)CC1` (centres unmarked) [Compound 119], the concentration for half-maximal inhibition (IC50) was below 100 nM. The compound `C[C@H](O)C(=O)N1CCN(c2cc(S(=O)(=O)NC3(C#N)CC3)cc3c(-c4nnc(C(F)F)s4)nn(CC(F)(F)F)c23)CC1` [Compound 110] had a half-inhibitory concentration (IC50) below 100 nM. `CC(C)C(=O)N1[C@H](C)CN(c2cc(S(=O)(=O)NC3(C#N)CC3)cc3c(-c4nnc(C(F)F)s4)nn(CC(F)(F)F)c23)C[C@@H]1C` [Compound 104] returned an IC50 below 100 nM. The compound `C[C@H](N)C(=O)N1CCN(c2cc(S(=O)(=O)NC3(C#N)CC3)cc3c(-c4nnc(C(F)F)s4)nn(CC(F)(F)F)c23)CC1` [Compound 111] registered an IC50 below 100 nM.
